Measurements reported in publication PMC8244865, “Recruitment of phospholipase Cγ1 to the non-structural membrane protein pK15 of Kaposi Sarcoma-associated herpesvirus promotes its Src-dependent phosphorylation” (PLoS Pathogens, 2021).

Legend:
PLCγ1 nSH2 = target: T1, PLCγ1 nSH2 (Homo sapiens, UniProt P19174); test: 1H,15N HSQC NMR titration, PLCγ1 nSH2; type: binding; details: 1H-15N HSQC titration
T1 construct: nSH2 (545–662): 180 ± 43 nM; thioredoxin (pETM22 fusion, purified on Ni column) (N, cleaved yes); made in house; host or cells: E. coli BL21(DE3)
T1 sequence (P19174 545-662): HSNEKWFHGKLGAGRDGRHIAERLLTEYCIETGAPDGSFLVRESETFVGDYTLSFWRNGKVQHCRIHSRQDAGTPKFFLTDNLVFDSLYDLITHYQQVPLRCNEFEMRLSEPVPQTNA
Procedure: Fig 5 Affinity of pK15 peptide for PLCγ1 tSH2 or individual SH2 domains. (A) Binding curves of several PLCγ1 fragments in the presence of 200 nM 5,6-FAM-labelled pK15 (12mer). All measurements were performed in triplicate. […] (B and C) Overlay of ^1H,^15N HSQC NMR spectra of nSH2 (B) and cSH2 (C) alone (in yellow) and in the presence of 2 molar equivalents of the pK15 12mer peptide (blue), measured with a 600 MHz spectrometer at 298 K. The protein concentration was 100 μM and the buffer contained 100 mM MES, 150 mM NaCl, 3 mM TCEP, pH 6.5. (D and E) Excerpts from ^1H-^15N HSQC spectra of nSH2 (D) and cSH2 (E) upon addition of increasing concentrations of the pK15 12mer peptide.
Next, we used Nuclear Magnetic Resonance (NMR) spectroscopy to further compare the interaction of the phosphorylated pK15 12mer to the isolated nSH2 and cSH2 domains (Fig 5B–5E). We recorded ^1H-^15N HSQC spectra of each of the two domains in the presence of increasing concentrations of the pK15 peptide. In this spectrum, each N-H group of the protein gives rise to one peak. […] A change in the position of a few NMR peaks of the amide groups of the protein upon addition of the peptide is indicative of binding. […] The behavior of the NMR peaks during the titration series, however, differed for the two SH2 domains, indicating different binding kinetics. […] In light of this, it is conceivable that the preference of pK15 CT for cSH2 in vivo may be determined by kinetic rather than thermodynamic factors.
NMR experiments were recorded at 298 K on a 600-MHz Bruker Avance III-HD spectrometer equipped with an inverse HCN cryogenic probehead (nitrogen-cooled) and running Topspin 3.2 software. 2D ^15N-HSQC spectra were recorded using States-TPPI for frequency discrimination, with water suppression achieved via a combination of WATERGATE and water flip-back pulses to preserve the water magnetization. NMR data were processed in Topspin and analysed in CcpNmr Analysis v2.4 [74].

[1] = tested on: PLCγ1 R^586L and R^694L double mutant (DM) (SA and tSH2); test: AlphaLISA, SA and tSH2 double mutant; type: binding; details: phosphorylated; 300 nM each protein
Procedure: Fig 4 The PLCγ1 cSH2 domain is required for the binding of PLCγ1 to phosphorylated pK15 in vitro and may serve as a dominant-negative inhibitor. GST-fused pK15 cytoplasmic tail WT (A), or its truncated mutant N2 [51] (B), were phosphorylated in vitro by 2xStrep-Src and an AlphaLISA was performed with the indicated His-tagged fragments of PLCγ1. Mean and standard deviation from at least two independent experiments with two technical replicates each are depicted. GST fusion proteins of the N1 (C) or N2 (D) truncation mutants of the pK15 cytoplasmic tail were phosphorylated in vitro by 2xStrep-Src and their interaction with recombinant purified PLCγ1 tSH2 (tandem SH2) or SA (γ-specific array) domains was measured by AlphaLISA in the presence of increasing concentrations (300 nM, 600 nM, 900 nM, 1200 nM) of the purified PLCγ1 cSH2. […] After 48h lysates were collected and analysed by Western blot using an antibody to PLCγ1 pY^783 to assess the level of PLCγ1 phosphorylation. (F) The intensities of the pPLCγ1 bands shown in panel E were quantified by densitometry, normalized to the values obtained with the empty vector (EV) in the presence of pK15, and plotted as relative values. […]
His-tagged PLCγ1 (SA, tSH2 or the isolated SH2 domains) was incubated at room temperature with GST-tagged K15P or its mutants for 1 hour. […] Emission at 615 nm was detected on BioTek Synergy 2 plate reader.

Molecule: DDLpYEEVLFPRN [pK15 12mer, phosphorylated peptide representing the last 12 amino acids of pK15 CT (DDLp…)]
- dissociation rate koff or association rate kon of nSH2–peptide complex relative to cSH2–peptide complex (PLCγ1 nSH2; 298 K, pH 6.5): more than one order of magnitude slower than the corresponding rate of the cSH2–peptide complex
- NMR exchange regime (PLCγ1 nSH2; 600 MHz, 298 K, 100 μM protein, 100 mM MES, 150 mM NaCl, 3 mM TCEP, pH 6.5): slow exchange regime
- affinity for nSH2 compared with cSH2 (NMR) (PLCγ1 nSH2; same saturating concentration of peptide, either nSH2 or cSH2): both domains bound the K15 peptide with similar affinity

B1: pK15 CT^WT: pK15 cytoplasmic tail fused to GST at its N-terminal end, phosphorylated in vitro by Src (protein)
chain: SQLLNEVELQEVNRDPPNVFGYASILVSGAEESREPSPQPDQSGMSILRVDGGSAFRIDTAQAATQPTDDLYEEVLFPRN
modifications: tyrosine-phosphorylated in vitro by Src; sites not stated for this construct; left off: GST, N-terminal, kept
- interaction (AlphaLISA) [1]: failed to interact
